# According to patent publication US20060135773A1, “Trisubstituted nitrogen modulators of tyrosine phosphatases” (priority 2004, published 2006):
# Target: T1, PTP-1B (Homo sapiens, UniProt P18031)
# T1 construct: PTP-1B (purified, 1 mg/mL) as a 1:250 dilution
# T1 sequence (P18031 1-321 limits assumed): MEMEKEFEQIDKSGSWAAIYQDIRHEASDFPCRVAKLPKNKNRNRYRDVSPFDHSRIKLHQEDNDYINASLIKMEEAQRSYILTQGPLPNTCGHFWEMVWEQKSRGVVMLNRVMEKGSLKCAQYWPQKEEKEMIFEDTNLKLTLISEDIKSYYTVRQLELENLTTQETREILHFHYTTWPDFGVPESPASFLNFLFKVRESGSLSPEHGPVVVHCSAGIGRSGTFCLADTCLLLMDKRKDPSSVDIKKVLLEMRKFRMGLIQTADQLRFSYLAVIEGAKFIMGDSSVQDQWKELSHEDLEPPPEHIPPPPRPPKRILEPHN
# Test: pNPP tyrosine phosphatase inhibition assay, PTP-1B
# Type: biochemical
# Details: pNPP assay, PTP-1B; read-out: Activity Class (IC50 ranges)
# Summary of the method: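 Test compounds were screened at two final levels, 31.3 and 10 µM, against 4 µg/mL purified PTP-1B. The substrate was 10 mM p-nitrophenyl phosphate, with incubation for 10 min at 30°C before a K2CO3 quench. Activity was taken from A405.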
row,SMILES,IC50 [µM]
1,"COc1ccccc1S(=O)(=O)N(Cc1ccc(C#N)cc1)Cc1ccc(NS(=O)(=O)C(F)(F)F)cc1 [Compound 117, N-(4-(N-trifluoro-methanesulfonyl-amino]benzyl)-N-(4-cyanobenzyl)-(2-methoxy)benzenesulfonamide]",> 25
2,"COc1ccccc1S(=O)(=O)N(Cc1ccc(C#N)cc1)Cc1ccc(NC(=O)C(=O)O)cc1 [Compound 118, N-(4-(N-oxalylamino]benzyl)-N-(4-cyanobenzyl)-(2-methoxy)benzenesulfonamide]",> 25
3,"COc1ccc(OC)c(S(=O)(=O)N(Cc2ccc(C(O)CO)cc2)Cc2ccc(S(C)(=O)=O)cc2)c1 (stereo not drawn) [Compound 119, N-[4-(1,2-Dihydroxy-ethyl)-benzyl]-N-(4-methanesulfonyl-benzyl)-2,5-dimethoxy-benzenesulfonamide]",> 25
4,"COc1ccccc1S(=O)(=O)N(Cc1ccc(C#N)cc1)Cc1ccc(C=CC(=O)O)c(Br)c1 [Compound 120, 3-{2-Bromo-4-[N-(4-cyanobenzyl)-N-(2-methoxy-benzenesulfonyl)aminomethyl]-phenyl}-acrylic acid]",> 25
5,"O=C(O)CCc1ccc(S(=O)(=O)N(Cc2ccc(Cl)c(Cl)c2)Cc2ccc(C(F)(F)P(=O)(O)O)c(Br)c2)cc1 [Compound 122, 3-{4-[[3-Bromo-4-(difluoro-phosphono-methyl)-benzyl]-(3,4-dichloro-benzyl)-sulfamoyl]-phenyl}-propionic acid]",0.1 to 0.249
6,"COc1ccccc1S(=O)(=O)N(Cc1ccc(C#N)cc1)Cc1ccc(C(O)C(O)C(=O)O)c(Br)c1 (stereo not drawn) [Compound 123, 1,2-dihydroxy-3-{2-Bromo-4-[N-(4-cyanobenzyl)-N-(2-methoxy-benzenesulfonyl)aminomethyl]-phenyl}-propionic acid]",> 25
7,"COc1ccccc1S(=O)(=O)N(Cc1ccc(C#N)cc1)Cc1ccc(C=CC(=O)O)cc1 [Compound 124, 3-{4-[N-(4-cyanobenzyl)-N-(2-methoxy-benzenesulfonyl)aminomethyl]-phenyl}-acrylic acid]",> 25
8,"COc1ccccc1S(=O)(=O)N(Cc1ccc(C(=O)C(=O)O)cc1)Cc1ccc(S(C)(=O)=O)cc1 [Compound 125, (4-{[(4-Methanesulfonyl-benzyl)-(2-methoxy-benzenesulfonyl)-amino]-methyl}-phenyl)-oxo-acetic acid]",> 25
9,"COc1ccccc1S(=O)(=O)N(Cc1ccc(C(=NO)C(=O)O)cc1)Cc1ccc(S(C)(=O)=O)cc1 [Compound 126, Hydroxyimino-(4-{[(4-methanesulfonyl-benzyl)-(2-methoxy-benzenesulfonyl)-amino]-methyl}-phenyl)-acetic acid]",> 25
10,"COc1ccccc1S(=O)(=O)N(Cc1ccc(C(O)C(=O)O)cc1)Cc1ccc(S(C)(=O)=O)cc1 (stereo not drawn) [Compound 127, Hydroxy-(4-{[(4-methanesulfonyl-benzyl)-(2-methoxy-benzenesulfonyl)-amino]-methyl}-phenyl)-acetic acid]",> 25
11,"COc1ccccc1S(=O)(=O)N(Cc1ccc(OCc2nn[nH]n2)cc1)Cc1ccc(S(C)(=O)=O)cc1 [Compound 128, N-(4-Methanesulfonyl-benzyl)-2-methoxy-N-[4-(2H-tetrazol-5-ylmethoxy)-benzyl]-benzenesulfonamide]",> 25
12,"COc1ccccc1S(=O)(=O)N(Cc1ccc(C#N)cc1)Cc1ccc(NC(=O)C(=O)O)cc1 [Compound 129, N-(4-(N-oxalylamino]benzyl)-N-(4-cyanobenzyl)-(2-methoxy)benzenesulfonamide]",> 25
13,"CS(=O)(=O)N(Cc1ccc(C(F)(F)P(=O)(O)O)cc1)Cc1ccc(C(F)(F)P(=O)(O)O)cc1 [Compound 131, {[4-({[4-(Difluoro-phosphono-methyl)-benzyl]-methanesulfonyl-amino}-methyl)-phenyl]-difluoro-methyl}-phosphonic acid]",2.5 to 25

# The remaining lines, values ahead:
row,IC50 [µM],SMILES
1,> 25,"COc1ccccc1S(=O)(=O)N(Cc1ccc(C=CC(=O)O)cc1)Cc1ccc(C=CC(=O)O)cc1 [Compound 132, 3-(4-{[[4-(2-Carboxy-vinyl)-benzyl]-(2-methoxy-benzenesulfonyl)-amino]-methyl}-phenyl)-acrylic acid]"
2,> 25,COc1ccccc1S(=O)(=O)N(Cc1ccc(C#N)cc1)Cc1ccc(NC(=O)C(=O)O)c(C(=O)O)c1 [Compound 133]
3,> 25,"COc1ccccc1S(=O)(=O)N(Cc1ccc(S(C)(=O)=O)cc1)Cc1ccc(OCC(=O)O)c(C(=O)O)c1 [Compound 134, 2-Carboxymethoxy-5-{[(4-methanesulfonyl-benzyl)-(2-methoxy-benzenesulfonyl)-amino]-methyl}-benzoic acid]"
4,> 25,"COc1ccccc1S(=O)(=O)N(Cc1ccc(C#N)cc1)Cc1ccc(Nc2c(O)c(=O)c2=O)cc1 [Compound 135, N-(4-Cyano-benzyl)-N-[4-(2-hydroxy-3,4-dioxo-cyclobut-1-enylamino)-benzyl]-2-methoxy-benzenesulfonamide]"
5,> 25,"COc1ccccc1S(=O)(=O)N(Cc1ccc(N(CC(=O)O)C(=O)C(=O)O)cc1)Cc1ccc(S(C)(=O)=O)cc1 [Compound 136, N-Carboxymethyl-N-(4-{[(4-methanesulfonyl-benzyl)-(2-methoxy-benzenesulfonyl)-amino]-methyl}-phenyl)-oxalamic acid]"
6,0.25 to 0.499,"COc1ccccc1S(=O)(=O)N(Cc1ccc(S(C)(=O)=O)cc1)Cc1ccc(C(F)(F)P(=O)(O)O)c(Cl)c1 [Compound 137, [(2-Chloro-4-{[(4-methanesulfonyl-benzyl)-(2-methoxy-benzenesulfonyl)-amino]-methyl}-phenyl)-difluoro-methyl]-phosphonic acid]"
7,> 25,"COc1ccccc1S(=O)(=O)N(Cc1ccc(OCc2nnn[nH]2)cc1)Cc1ccc(OCc2nnn[nH]2)cc1 [Compound 138, 2-Methoxy-N,N-bis-[4-(1H-tetrazol-5-ylmethoxy)-benzyl]-benzenesulfonamide]"
8,> 25,"COc1ccccc1S(=O)(=O)N(Cc1ccc(C#N)cc1)Cc1ccc(NS(=O)(=O)C(F)(F)F)c(C(=O)O)c1 [Compound 139, 5-{[(4-Cyano-benzyl)-(2-methoxy-benzenesulfonyl)-amino]-methyl}-2-trifluoromethanesulfonylamino-benzoic acid]"
9,> 25,"COc1ccccc1S(=O)(=O)N(Cc1ccc(C#N)cc1)Cc1ccc(CC(C(=O)O)C(=O)O)cc1 [Compound 140, 2-(4-{[(4-Cyano-benzyl)-(2-methoxy-benzenesulfonyl)-amino]-methyl}-benzyl)-malonic acid]"
10,> 25,"COc1ccccc1S(=O)(=O)N(Cc1ccc(N(C)C(=O)C(=O)O)cc1)Cc1ccc(N(C)C(=O)C(=O)O)cc1 [Compound 141, N-[4-({(2-Methoxy-benzenesulfonyl)-[4-(methyl-oxalyl-amino)-benzyl]-amino}-methyl)-phenyl]-N-methyl-oxalamic acid]"
11,0.25 to 0.499,"COc1ccccc1S(=O)(=O)N(Cc1cccc(-c2cccc(S(C)(=O)=O)c2)c1)Cc1ccc(C(F)(F)P(=O)(O)O)c(Cl)c1 [Compound 142, [(2-Chloro-4-{[(3′-methanesulfonyl-biphenyl-3-ylmethyl)-(2-methoxy-benzenesulfonyl)-amino]-methyl}-phenyl)-difluoro-methyl]-phosphonic acid]"
12,0.25 to 0.499,"COc1ccccc1S(=O)(=O)N(Cc1cccc(-c2ccc(S(C)(=O)=O)cc2)c1)Cc1ccc(C(F)(F)P(=O)(O)O)c(Cl)c1 [Compound 143, [(2-Chloro-4-{[(4′-methanesulfonyl-biphenyl-3-ylmethyl)-(2-methoxy-benzenesulfonyl)-amino]-methyl}-phenyl)-difluoro-methyl]-phosphonic acid]"
13,0.25 to 0.499,"CS(=O)(=O)c1cccc(-c2ccc(S(=O)(=O)N(Cc3ccc(C#N)cc3)Cc3ccc(C(F)(F)P(=O)(O)O)c(Cl)c3)cc2)c1 [Compound 144, [(2-Chloro-4-{[(4-cyano-benzyl)-(3′-methanesulfonyl-biphenyl-4-sulfonyl)-amino]-methyl}-phenyl)-difluoro-methyl]-phosphonic acid]"
14,0.25 to 0.499,"COC(=O)c1cccc(-c2ccc(CN(Cc3ccc(C(F)(F)P(=O)(O)O)c(Cl)c3)S(=O)(=O)c3ccccc3OC)cc2)c1 [Compound 145, 4′-{[[3-Chloro-4-(difluoro-phosphono-methyl)-benzyl]-(2-methoxy-benzenesulfonyl)-amino]-methyl}-biphenyl-3-carboxylic acid methyl ester]"
15,0.25 to 0.499,"COc1ccccc1S(=O)(=O)N(Cc1ccc(Cl)c(Cl)c1)Cc1ccc(C(F)(F)P(=O)(O)O)c(Cl)c1 [Compound 146, [(2-Chloro-4-{[(3,4-dichloro-benzyl)-(2-methoxy-benzenesulfonyl)-amino]-methyl}-phenyl)-difluoro-methyl]-phosphonic acid]"
16,0.1 to 0.249,"COc1ccccc1S(=O)(=O)N(Cc1ccc(-c2ccc(S(C)(=O)=O)cc2)cc1)Cc1ccc(C(F)(F)P(=O)(O)O)c(Cl)c1 [Compound 147, [(2-Chloro-4-{[(4′-methanesulfonyl-biphenyl-4-ylmethyl)-(2-methoxy-benzenesulfonyl)-amino]-methyl}-phenyl)-difluoro-methyl]-phosphonic acid]"
17,0.1 to 0.249,"COc1ccccc1S(=O)(=O)N(Cc1ccc(-c2cccc(S(C)(=O)=O)c2)cc1)Cc1ccc(C(F)(F)P(=O)(O)O)c(Cl)c1 [Compound 148, [(2-Chloro-4-{[(3′-methanesulfonyl-biphenyl-4-ylmethyl)-(2-methoxy-benzenesulfonyl)-amino]-methyl}-phenyl)-difluoro-methyl]-phosphonic acid]"
